The test system of assay [1] is NF-κB. The assay can be described thus: NF-κB-dependent SEAP reporter gene assay, Panc28 cells. It counts as cell-based, human. As for the experimental part: (§1) NF-κB dependent reporter gene transcription was analyzed using secretory alkaline phosphatase (SEAP) assay as described previously. Briefly, Panc28 and MCF-7 cells (5×10^5 cells/well in a six-well plate) were transiently transfected by the calcium phosphate method in a 1 ml medium containing 0.5 μg of NF-κB promoter DNA, linked to the heat-stable SEAP gene or with the control plasmid pCMV-FLAG1 DNA. Transfected cells were either left untreated or treated with 1 μM A23187 (Sigma-Aldrich), 1 mM BPA, or 1 nM tumor necrosis factor (TNF)-α (Genentech, South San Francisco, Calif.). Twenty-four hours after treatment, the conditioned medium was removed and assayed for SEAP activity according to the manufacturer's instructions (Clontech Laboratories, Mountain View, Calif.) using an automated microplate reader (PerkinElmer, Wellesley, Mass.). In some experiments cells were co-transfected with dominant-negative construct of IκBα along with NF-κB reporter gene.
For orientation: A reporter such as luciferase makes a cellular process visible.

Assay [2] relates to NF-κB. The assay can be described thus: NF-κB activation by EMSA, BxPc3 cells. It counts as cell-based, human. Particulars: 1 μM or 2 μM, 24 hours. The procedure: (§2) To assess NF-κB activation, electrophoretic mobility shift assay (EMSA) was performed as described previously. Briefly, nuclear extracts prepared from cells (1×10^6/ml) were incubated with a ^32P end-labeled 45-mer double-stranded NF-κB oligonucleotide (15 μg of protein with 16 fmol of DNA) from the human immunodeficiency virus long terminal repeat, 5′-[…] […] CGCTG […] […]-3′ (boldface indicates NF-κB binding sites) (SEQ ID NO:17), for 30 minutes at 37° C., and the DNA-protein complex formed was separated from free oligonucleotide on 6.6% native polyacrylamide gels. A double-stranded mutated oligonucleotide, 5′-[…] […] CGCTG […] […]-3′ (SEQ ID NO:18), was used to examine the specificity of binding of NF-κB to the DNA. The specificity of binding was also examined using competition with the unlabeled and mutated oligonucleotides. For supershift assays, nuclear extracts were incubated with antibodies against either the p50 or the p65 subunit of NF-κB for 30 minutes at 37° C. before the complex was analyzed using EMSA.

Assay [3] has as its system NF-κB. The assay can be described thus: NF-κB activation by EMSA, Panc28 cells. It counts as cell-based, human. Particulars: for effect on A23187-induced activation of NF-κB: Panc28. The procedure:
as §2
(In EMSA bound probe runs differently from free probe, usually more slowly.)

The test system of assay [4] is NF-κB. The assay can be described thus: NF-κB activation by EMSA, MCF-7 cells. It counts as cell-based, human. Particulars: MCF-7 cells (lack TG2). As for the experimental part:
as §2

The subject of assay [5] is NF-κB. The assay can be described thus: NF-κB-dependent SEAP reporter gene assay, MCF-7/WT cells. It counts as cell-based, human. The procedure:
as §1

Assay [6] concerns Panc-28 tumors. The assay can be described thus: Ki-67 proliferation staining of Panc-28 tumors. More on the design: species or system nude mice. Particulars: mouse, in vivo. The source says: Ki-67 staining was used to evaluate the proliferation index of in vivo growing xenografts and expressed as the number of Ki-67^+ cells±standard error (SE) as determined by counting 10 random microscopic fields for three different tumor samples per treatment group.

Assay [7] concerns Panc-28 tumors. The assay can be described thus: Microvessel density (CD31) in Panc-28 tumors. Particulars: CD31 staining. It counts as in vivo, nude mice. The source says: A rat anti-mouse CD31 monoclonal antibody was used to determine the microvessel density in xenografts. The CD31 stained slides were observed under a Leica DM4000B fluorescence microscope (Leica Microsystems Inc, Bannockburn, Ill.) equipped with SPOT-RTKE digital camera (Diagnostic instruments, Sterling Heights, Mich.) and the images were acquired and stored using SPOT advanced software (Diagnostic instruments, Sterling Heights, Mich.). The stored images were processed using NIH ImageJ software. The vessel density in each image was estimated by setting a minimum threshold of 4 pixel^2. Setting a minimum threshold enables to avoid the background non-specific staining and to eliminate the fluorescence signal from single endothelial cell. Results were expressed as the mean number of vessels±SE per high power field (HPF, 100× magnification). A total of 20 random HPFs were examined and counted in four different tumor samples from each treatment group.

In assay [8] the test system is Panc-28 tumors. The assay can be described thus: Orthotopic Panc-28 PDAC tumor model: tumor growth and metastasis. Particulars: vs control siRNA group, end of treatment. It counts as in vivo, nude (nu/nu) mice.
Text: Panc-28 cells were stably transduced with the firefly luciferase gene as described previously (23). Luciferase-infected Panc-28 cells were harvested from subconfluent cultures after brief exposure to 0.25% trypsin and 0.2% EDTA. Trypsinization was stopped with the medium containing 10% fetal bovine serum. The cells were washed once in serum-free medium and resuspended in PBS. Single cell suspensions with >90% cell viability were used for implantation into the mice. Animals were anesthetized using intraperitoneal injection of 200 μl ketamine (100 mg/kg) and xylazine (5-10 mg/kg). […] The incision was closed in a single layer using sterile surgical Autoclips (Braintree Scientific, Braintree, Mass.), antibacterial mycotic cream was applied to the wound and the animal was placed on a heating pad to maintain body temperature and closely monitored until conscious.
Tumor growth in the mice after tumor-cell implantation was monitored weekly using a noninvasive bioimaging technique. […] Ten minutes after injection, each mouse was placed in the right lateral decubitus position, and bioluminescence was measured using a cryogenically cooled IVIS imaging system coupled with a data acquisition computer running LivingImage software (Xenogen Corp., Alameda, Calif.). […] The signal intensity was quantified as the sum of all detected photons within the region of interest per second per cm^2 per steridian. […]
The subject of assay [9] is BxPC-3 cells. The assay can be described thus: Gemcitabine cytotoxicity, MTS assay, BxPC-3. It counts as cell-based. Particulars: Homo sapiens. The procedure:
(§3) The number of viable cells remaining after the appropriate treatment was determined by measuring their ability to reduce 3-(4,5-dimethylthiazol-2-yl)-5-(3-carboxymethoxyphenyl)-2H-tetrazolium (MTS) into a soluble formazan in accordance with the manufacturer's instructions. Logarithmically growing cells were plated at 2×10^3 cells per well in 96-well plates and allowed to adhere overnight. […] Each experiment was repeated three times in triplicate. […] Under identical conditions, the cells were trypsinized, and the cell viability was determined with a trypan blue exclusion test to confirm the MTS results.

Assay [10] relates to Panc-28 cells. The assay can be described thus: Gemcitabine cytotoxicity, MTS assay, Panc-28. It counts as cell-based. Particulars: Homo sapiens, 72 hours. The procedure:
as §3

Assay [11] concerns Panc-28 tumors. The assay can be described thus: TUNNEL assay of apoptosis in Panc-28 tumors. It counts as in vivo, nude mice. As for the experimental part:
Terminal deoxynucleotidyl transferase mediated […] nick end labeling (TUNNEL) assay (Roche Molecular Biochemicals, Mannhein, Germany) of frozen sections to detect apoptotic cells was performed according to the manufacturer's protocol. The apoptotic fluorescence-positive cells were counted under a microscope and expressed as the percentage of total cells±SE. Ten fields in three tumors per treatment group were examined.

The subject of assay [12] is VEGF, pAkt (ser473). The assay can be described thus: VEGF and pAkt expression in Panc-28 tumors. Particulars: mouse, in vivo. More on the design: species or system nude mice. The procedure:
Pancreatic tumor tissue samples obtained from control and experimental mice were minced and incubated on ice for 30 min in 0.5 ml of ice-cold lysate buffer (20 mmol/L Tris-HCl, pH 7.4, containing 10% NP-40, 5 mol/L NaCl, 1 mol/L HEPES, 0.5 mol/L EDTA, 0.1 mol/L phenylmethylsulfonyl fluoride, 0.2 mol/L sodium orthovanadate, 1 mol/L NaF, 2 μg/ml aprotinin, and 2 μg/ml leupeptin). The minced tissue was homogenized using a Dounce homogenizer and centrifuged at 16,000×g at 4° C. for 10 min. Fifty micrograms of total protein from each sample was then fractionated using sodium dodecyl sulfate-polyacrylamide gel, electrotransferred onto nitrocellulose membranes, blotted with appropriate antibodies, and antigen antibody reaction detected using enhanced chemiluminescence (Amersham Pharmacia Biotech, Piscataway, N.J.). […] The protein bands obtained were quantified using the AlphaEase FC (Fluor Chem 8900) software program (Alpha Innotech, San Leandro, Calif.).
Tissue microarray slides constructed using 65 formalin-fixed patient tumor samples and 9 normal pancreatic tissue samples were used for this study. […] TG2 protein expression in these tumor samples and xenograft tumors from siRNA treated mice was evaluated immunohistochemically using the Vectastatin Elite ABC immunostaining kit (Vector Laboratories, Burlingame, Calif.) as described previously (12). […]

For assay [13], the system named is MiaPaCa-2 cells. The assay can be described thus: Gemcitabine cytotoxicity, MTS assay, MiaPaCa-2. It counts as cell-based. Particulars: Homo sapiens, MIA PaCa-2, 72 hours. The procedure: as §3
Background: Formazan colour is commonly taken as a measure of viable cells.

Entries after “also recorded” stand apart in the source; their conditions may differ.

Consider `CNc1ccc2oc(C[C@H]3O[C@@]4(CC[C@H]3C)O[C@H]([C@H](C)C(=O)c3ccc[nH]3)[C@H](C)C[C@H]4C)nc2c1C(=O)O` [A23187], for which the “SEAP expression in response to A23187” value in assay [1] (Panc28, 1 µM for 24 hours) is reported as “did not increase further”. Also, the NF-κB activation entry in [2] is “strong activation of NF-κB”; in [4], “failed to show an increase in NF-κB activation”. Moreover, the “basal TG2 activity and constitutive NF-κB activation” value in [3] (Panc28 cells) is “could be further induced”. Also, in [5], the “A23187-induced SEAP activity” value is “No basal or A23187-induced activity of SEAP”.

A word on the inhibition: it is how much of the control response was suppressed. Turning to `NCCCCCNC(=O)CCCC[C@@H]1SC[C@@H]2NC(=O)N[C@@H]21` [BPA, 5-(biotinamido) pentylamine], the “inhibition of SEAP expression” value in assay [1] (Panc28, P<0.002) is “significantly inhibited”. Besides, in assay [3] (Homo sapiens, Panc28, 1 mM for 24 hours, read-out: inhibition of constitutive activation of NF-κB), the inhibition at 1000 µM was around 70%. The “effect on A23187-induced activation of NF-κB” value in [3] is “failed to further augment A23187-induced activation of NF-κB”. In assay [5] (BPA 1 mM), the “inhibition of TNF-α-induced SEAP expression” value is listed as “not by BPA”.

As for `CN(C)c1cccc2c(S(=O)(=O)NCCCCCN)cccc12` [MDC, monodansylcadaverine], the inhibition at 50 µM in assay [3] (Homo sapiens, Panc28, 50 μM, 24 hours) was around 60%. Also, the “effect on A23187-induced activation of NF-κB” value in assay [3] was “blocked A23187-induced activation”.

As usually defined, the IC50 is the concentration needed to halve the response being measured. Read a low IC50 as inhibition by little substance. With `Nc1ccn([C@@H]2O[C@H](CO)[C@@H](O)C2(F)F)c(=O)n1` [gemcitabine], the Ki-67 staining result in [6] was “high levels of Ki-67 staining”. Moreover, the “mean blood vessel / microvascular density” value in assay [7] is “significant decrease in the mean blood vessel density”. In assay [8], the metastasis score entry is reported as “completely ineffective in inhibiting metastasis; also recorded: no decreases in the metastasis score”. The IC50 in assay [9] (BxPC-3 cells (TG2-deficient), 72 hours) came to 10 nM; in assay [9] (BxPC-3 cells infected with TG2wt adenoviral construct, data not shown), 100 nM; in assay [10], 1000 nM; in assay [13], 100 nM. Moreover, the “apoptotic cells in tumors” value in assay [11] is “significant increases in the numbers of apoptotic cells”. In [12], the “pAkt (serine 473) in tumors” value is on record as “no significant changes in NF-κB activity or pAkt levels”.

In turn, TNF-α gave an SEAP reporter expression in assay [5] (TNF 1 nM, fold over non-transfected control) of 14 fold.

(Values after patent publication US8299040B2, “Methods for treating cancer targeting transglutaminase” (Board of Regents, The University of Texas System, priority 2006, dated 2012).)
